Laboratory results: EP0782997A2, “Triazolopyrimidine derivatives” (SHELL INTERNATIONALE RESEARCH MAATSCHAPPIJ B.V., priority 1991, dated 1993)
Converted amounts (≈) assume the structure as drawn.

Assays:
Botrytis cinerea [1] = experiment: MIC determination by serial dilution in microtitre plates; type: cell-based; settings: lowest concentration without mycelial growth, V8 juice nutrient solution, 20°C, 6-8 days, visual inspection
Protocol: (§1) Determination of MIC-Values of compounds against various phytopathogenic fungi
(§2) The MIC (Minimum Inhibition Concentration)-values were determined by serial dilution tests using 48-well microtitre plates. The dilution of the test compounds in the nutrient solution and the distribution to the wells were carried out by a TECAN RSP 5000 robotic sample processor.
(§3) For preparation of the nutrient solution, V8 juice (Trade Mark) was neutralised with calcium carbonate and centrifuged. The supernatant was diluted with distilled water (1:5) to the final concentration.
(§4) The fungi (Alternaria solani, Botrytis cinerea, Septoria nodorum) were added into the wells as a droplet of spore suspension. The microtitre plates were then incubated at 20°C for 6-8 days. The MIC-value was determined by visual inspection of the plates. In the case of Alternaria solani and Botrytis cinerea, the lowest concentration in the dilution series without mycelial growth was defined to be the MIC-value. For Septoria nodorum, no MIC-value but only a strong inhibition of growth was regularly observed.

Alternaria solani [2] = experiment: as above; type: cell-based; settings: lowest concentration without mycelial growth, V8 juice nutrient solution, 20°C, 6-8 days, visual inspection
Protocol: as §1, §2, §3, §4

Venturia inaequalis = experiment: Fungicidal activity against Venturia inaequalis on Malus sp. (apple cuttings, protectant spray); type: in vivo; design: key: 0 = no infection; 1 = 1-10% infection; 2 = 11-40% infection; 3 = 41-100% infection; settings: extent of infection score; apple cuttings variety Morgenduft; test compound 400 ppm; infected after 24 hours; assessed after about 14 days
Protocol: Fungicidal activity against Venturia inaequalis on Malus sp.
Apple cuttings of the variety Morgenduft, which are about 6 weeks old, were treated with a solution of the test compound (400 ppm) in water/acetone/Triton X or water/methanol/Triton X. After 24 hours, the plants were infected with a conidia suspension of Venturia inaequalis (about 50,000 conidia/ml), incubated in a dark climatic chamber at a relative humidity of 100% for 48 hours and then kept at a relative humidity of 95-99% and temperature of 18-20°C during the day and 13°C during the night for about 14 days. The extent of infection was assessed according to the following scheme:- • 0 = no infection • 1 = 1-10% infection • 2 = 11-40% infection • 3 = 41-100% infection The results of these tests are set out in Table II below:-

Rhizoctonia solani = experiment: Activity against Rhizoctonia in-vitro (RSI), Example 120; type: cell-based; settings: 50 ppm compound, 2.5% acetone, 20°C, 10 days, mycelial growth, rating
[3] = system: Pseudocercosporella herpotrichoides; experiment: Activity against wheat eyespot in-vitro (PHI), Example 120; type: cell-based; settings: 50 ppm compound, 2.5% acetone, 20°C, 12 days, mycelial growth, rating
Alternaria solani [4] = experiment: Activity against tomato early blight (AS), Example 120; type: in vivo; settings: tomato seedlings, foliar spray as described under (a) (1000 ppm), contact prophylactic; disease control rating
Botrytis cinerea [5] = experiment: Direct protectant activity against broad bean grey mould (BCB), Example 120; type: in vivo; settings: broad bean plants, foliar spray 1000 ppm, disease control rating
Leptosphaeria nodorum = experiment: Activity against wheat leafspot (LN), Example 120; type: in vivo; settings: wheat plants, foliar spray 1000 ppm, direct therapeutic; disease control rating
[6] = system: Erysiphe graminis f.sp. hordei; experiment: Activity against barley powdery mildew (EG), Example 120; type: in vivo; settings: barley seedlings, foliar spray 1000 ppm, direct therapeutic; disease control rating
Pyricularia oryzae = type: in vivo; settings: rice seedlings, foliar spray 1000 ppm, direct therapeutic; disease control rating

## Cc1ccc(-c2c(Cl)nc3ncnn3c2NC2CCCC2)cc1 [Example 1, 5-chloro-6-(4-methylphenyl)-7-cyclo-pentylamino-1,2,4-triazolo[1,5-a]pyrimidine]
Botrytis cinerea [1]
  MIC: 12.5 µg/mL (≈ 38.1 µM)
Alternaria solani [2]
  MIC: 1.56 µg/mL (≈ 4.76 µM)
Venturia inaequalis
  Activity: 1 (1 = 1-10% infection)

## Brc1nc2ncnn2c(NC2CCCC2)c1-c1ccccc1 [Example 2, 5-bromo-6-phenyl-7-cyclopentylamino-1,2,4-triazolo[1,5-a]pyrimidine]
Venturia inaequalis
  Activity: 0

## COc1ccc(-c2cnc3ncnn3c2NC2CCCC2)cc1 [Example 3, 6-(4-methoxyphenyl)-7-cyclopentylamino-1,2,4-triazolo[1,5-a]pyrimidine]
Venturia inaequalis
  Activity: 2.5

## CNc1nc2ncnn2c(NC2CCCC2)c1-c1ccccc1 [Example 4, 5-methylamino-6-phenyl-7-cyclopentylamino-1,2,4-triazolo[1,5-a]pyrimidine]
Venturia inaequalis
  Activity: 2.3

## Clc1ccccc1-c1c(I)nc2ncnn2c1NC1CCCC1 [Example 6, 5-iodo-6-(2-chlorophenyl)-7-cyclopentylamino-1,2,4-triazolo[1,5-a]pyrimidine]
Botrytis cinerea [1]
  MIC: 6.25 µg/mL (≈ 14.2 µM)
Alternaria solani [2]
  MIC: 3.13 µg/mL (≈ 7.12 µM)

## CC(C)Nc1c(-c2ccccc2F)c(Cl)nc2ncnn12 [Example 41]
Rhizoctonia solani
  Fungicidal Activity RSI: 2 (2 = greater than 80% disease control)
Botrytis cinerea [1]
  MIC: 25 µg/mL (≈ 81.8 µM)
Alternaria solani [2]
  MIC: 12.5 µg/mL (≈ 40.9 µM)
[3]
  Fungicidal Activity PHI: 1 (1 = about 50-80% disease control)
Alternaria solani [4]
  Fungicidal Activity AS: 2 (2 = greater than 80% disease control)
Botrytis cinerea [5]
  Fungicidal Activity BCB: 2 (2 = greater than 80% disease control)
Leptosphaeria nodorum
  Fungicidal Activity LN: 2 (2 = greater than 80% disease control)
[6]
  Fungicidal Activity EG: 2 (2 = greater than 80% disease control)
Pyricularia oryzae
  Fungicidal Activity PO: 2 (2 = greater than 80% disease control)
Venturia inaequalis
  Activity: 0
